Publication PMC8742467, “Therapeutical interference with the epigenetic landscape of germ cell tumors: a comparative drug study and new mechanistical insights” (Clinical Epigenetics, 2022)

Key:
[1] = tested on: fibroblasts (MPAF, HVHF2); assay: XTT cell viability assay, fibroblasts; assay type: cell-based; details: Homo sapiens, Fibroblast; after 48 h, mean
Description: (§1) The […] (XTT) assays were performed as described previously. In summary, for GCT and fibroblast cell lines 5 × 10^3 cells (3 × 10^3 for UC, PCa and RCC cell lines) per 96-well were seeded and different drug concentrations (see Additional file 2: Fig. S2, Additional file 3: Fig. S3) or corresponding solvents were added to the cells the following day. For drug details see Additional file 12: Table S2 C. Each condition was analyzed in four technical replicates and EC50 values were calculated by GraphPad Prism v8.

[2] = tested on: transcriptome of 2102EP cells; assay: RNA sequencing; assay type: cell-based, Human; details: 16 h
Outline: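 Transcriptome of 2102EP cells sequenced; differential expression between two groups tested with p values FDR-corrected for multiple testing. Solvent-control values averaged across three datasets (GSE189472, GSE190792, GSE190022).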

[3] = tested on: EC (embryonal carcinoma) cell lines; assay: XTT cell viability assay, mean per entity EC; assay type: cell-based; details: Homo sapiens, after 48 h
Description: as §1

[4] = tested on: histone modifications in 2102EP cells; assay: Mass spectrometry analysis of histone modifications (Mod Spec); assay type: cell-based, Human
Outline: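 2102EP cells were treated for 16 h with EC50 concentrations of Quisinostat, JIB-04, Chaetocin, MZ-1, LP99, PRT4165 or GSK343, with DMSO as solvent control. After trypsin harvest, histones were extracted and analysed by mass spectrometry. Raw data were converted to z-scores.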

[5] = sorted data log2>±1.5, FDR p<0.05
[6] = 2102EP cells, Mod Spec raw data
[7] = 2102EP, EC50, 16 h, vs solvent control

## Cn1cc(CNCC2CCN(c3ncc(C(=O)NO)cn3)CC2)c2ccccc21 [Quisinostat]
[1]
  EC50: > 50 nM
[2]; [5]
  EIF3CL Log2 fold change vs. DMSO: -3.69
  HBA1 Log2 fold change vs. DMSO: 5.01
  IL13RA2 Log2 fold change vs. DMSO: -2.69
  LYST Log2 fold change vs. DMSO: -2.73
  TSPY4 Log2 fold change vs. DMSO: 5.17
  TTC9B Log2 fold change vs. DMSO: 4.98
[2]; unsorted data
  A1BG Log2 fold change vs. DMSO: 1.07
  A1CF Log2 fold change vs. DMSO: 2.77
  A2M Log2 fold change vs. DMSO: -0.10
[3]
  EC50: 11.6 nM
[4]; [6]
  H1.4: K25AC, % of peptide pool: 0.02419%
  H1.4: K25ME1, % of peptide pool: 1.754%
  H1.4: K25ME2, % of peptide pool: 0.1017%
  H1.4: K25ME3, % of peptide pool: 0.01896%
  H1.4: K25UN, % of peptide pool: 98.1009%
  H2A1: K13AC, % of peptide pool: 0.02445%
  H2A1: K13UN, % of peptide pool: 99.9755%
  H2A1: K15AC, % of peptide pool: 0.008356%
  H2A1: K15UB, % of peptide pool: 0%
  H2A1: K15UN, % of peptide pool: 99.9916%
  H2A3: K13AC, % of peptide pool: 0.03116%
  H2A3: K13UN, % of peptide pool: 99.9688%
  H2A3: K15AC, % of peptide pool: 0.09989%
  H2A3: K15UB, % of peptide pool: 0%
  H2A3: K15UN, % of peptide pool: 99.9001%
  H2A: K5AC, % of peptide pool: 30.5025%
  H2A: K5UN, % of peptide pool: 69.4975%
  H2A: K9AC, % of peptide pool: 4.727%
  H2A: K9UN, % of peptide pool: 95.2735%
  H2A: K36AC, % of peptide pool: 0.03623%
  H2A: K36UN, % of peptide pool: 99.9638%
  H3: K9AC, % of peptide pool: 3.623%
  H3: K9ME1, % of peptide pool: 30.7914%
  H3: K9ME2, % of peptide pool: 27.5315%
  H3: K9ME3, % of peptide pool: 2.296%
  H3: K9UN, % of peptide pool: 35.7584%
  H3: K14AC, % of peptide pool: 58.3927%
  H3: K14UN, % of peptide pool: 41.6073%
  H3: K18AC, % of peptide pool: 38.2845%
  H3: K18ME1, % of peptide pool: 0.1021%
  H3: K18UN, % of peptide pool: 61.6134%
  H3: K23AC, % of peptide pool: 46.4415%
  H3: K23ME1, % of peptide pool: 0.02903%
  H3: K23UN, % of peptide pool: 53.5295%
  H3: K56AC, % of peptide pool: 0.1713%
  H3: K56ME1, % of peptide pool: 1.011%
  H3: K56UN, % of peptide pool: 98.8174%
  H3: K64AC, % of peptide pool: 0.03095%
  H3: K64UN, % of peptide pool: 99.9691%
  H3: K79AC, % of peptide pool: 0.6776%
  H3: K79ME1, % of peptide pool: 18.2028%
  H3: K79ME2, % of peptide pool: 5.702%
  H3: K79ME3, % of peptide pool: 13.4482%
  H3: K79UN, % of peptide pool: 61.9691%
  H3: K122AC, % of peptide pool: 0.1638%
  H3: K122UN, % of peptide pool: 99.8362%
  H3: Q19ME1, % of peptide pool: 0.00624%
  H3: Q19UN, % of peptide pool: 99.9938%
  H3: Q55ME1, % of peptide pool: 0.3096%
  H3: Q55UN, % of peptide pool: 99.6904%
  H3: R42ME2, % of peptide pool: 2.863%
  H3: R42UN, % of peptide pool: 97.1374%
  H3: R49ME2, % of peptide pool: 6.457%
  H3: R49UN, % of peptide pool: 93.5429%
  H3R2UN: K4AC, % of peptide pool: 0.2031%
  H3R2UN: K4ME1, % of peptide pool: 23.4933%
  H3R2UN: K4ME2, % of peptide pool: 0.2912%
  H3R2UN: K4ME3, % of peptide pool: 0.05363%
  H3R2UN: K4UN, % of peptide pool: 75.9587%
  H3R2UN: Q5ME1, % of peptide pool: 0.06645%
  H3R2UN: Q5UN, % of peptide pool: 99.9336%
  H3.1: K27AC, % of peptide pool: 8.049%
  H3.1: K27ME1, % of peptide pool: 45.2407%
  H3.1: K27ME2, % of peptide pool: 17.0794%
  H3.1: K27ME3, % of peptide pool: 2.551%
  H3.1: K27UN, % of peptide pool: 27.08%
  H3.1: K36AC, % of peptide pool: 0.2956%
  H3.1: K36ME1, % of peptide pool: 12.4481%
  H3.1: K36ME2, % of peptide pool: 50.5827%
  H3.1: K36ME3, % of peptide pool: 20.2944%
  H3.1: K36UN, % of peptide pool: 16.3791%
  H3.3: K27AC, % of peptide pool: 13.7879%
  H3.3: K27M, % of peptide pool: 0%
  H3.3: K27ME1, % of peptide pool: 42.1096%
  H3.3: K27ME2, % of peptide pool: 14.1824%
  H3.3: K27ME3, % of peptide pool: 5.8099%
  H3.3: K27UN, % of peptide pool: 24.1102%
  H3.3: K36AC, % of peptide pool: 4.027%
  H3.3: K36ME1, % of peptide pool: 9.936%
  H3.3: K36ME2, % of peptide pool: 52.9264%
  H3.3: K36ME3, % of peptide pool: 21.2958%
  H3.3: K36UN, % of peptide pool: 11.8156%
  H4: K5AC, % of peptide pool: 13.3396%
  H4: K5UN, % of peptide pool: 86.6604%
  H4: K8AC, % of peptide pool: 32.6787%
  H4: K8UN, % of peptide pool: 67.3213%
[4]; 2102EP cells, Mod Spec raw data, histone H4 K12 acetylated
  H4: K12AC, % of peptide pool: 21.736 % of peptide pool
[4]; 2102EP cells, Mod Spec raw data, histone H4 K12 unmodified
  H4: K12UN, % of peptide pool: 78.264 % of peptide pool
[4]; 2102EP cells, Mod Spec raw data, histone H4 K16 acetylated
  H4: K16AC, % of peptide pool: 69.3546 % of peptide pool
[4]; 2102EP cells, Mod Spec raw data, histone H4 K16 unmodified
  H4: K16UN, % of peptide pool: 30.6454 % of peptide pool
[4]; 2102EP cells, Mod Spec raw data, histone H4 K20 acetylated
  H4: K20AC, % of peptide pool: 15.0365 % of peptide pool
[4]; 2102EP cells, Mod Spec raw data, histone H4 K20 dimethylated
  H4: K20ME2, % of peptide pool: 57.6801 % of peptide pool
[4]; 2102EP cells, Mod Spec raw data, histone H4 K20 monomethylated
  H4: K20ME1, % of peptide pool: 5.018 % of peptide pool
[4]; 2102EP cells, Mod Spec raw data, histone H4 K20 trimethylated
  H4: K20ME3, % of peptide pool: 3.192 % of peptide pool
[4]; 2102EP cells, Mod Spec raw data, histone H4 K20 unmodified
  H4: K20UN, % of peptide pool: 19.0735 % of peptide pool
[4]; [7]
  change of histone modifications of the expected mode of action (Mod Spec): strong accumulation of histone acetylation on histones H3 and H4
  off-target changes of histone modifications (Mod Spec): increase in histone methylation (H3K4me1, H3.3K27me3, H3K56me1, H4K20me1/3)
